Assay results published in patent publication US7189691B2, “Methods and compositions for treating leukemia” (The Administrators of the Tulane Educational Fund, priority 2004, dated 2007).
Values after ≈ are worked out from the molar mass of the structure shown. “Also recorded” adds a separate entry of the source. Like-named read-outs stand apart in the source and are kept apart here.

How the values were obtained:
[1] = target: T1, AF4-AF9 interaction (Homo sapiens, UniProt P42568); assay: GST pull-down assay, GST-AF4(749-775) and biotinylated AF9; type: binding
T1 construct: made in house; host or cells: GST-AF4 from E. coli; AF9 by coupled in vitro transcription/translation (Promega)
T1 sequence (P42568 211-568): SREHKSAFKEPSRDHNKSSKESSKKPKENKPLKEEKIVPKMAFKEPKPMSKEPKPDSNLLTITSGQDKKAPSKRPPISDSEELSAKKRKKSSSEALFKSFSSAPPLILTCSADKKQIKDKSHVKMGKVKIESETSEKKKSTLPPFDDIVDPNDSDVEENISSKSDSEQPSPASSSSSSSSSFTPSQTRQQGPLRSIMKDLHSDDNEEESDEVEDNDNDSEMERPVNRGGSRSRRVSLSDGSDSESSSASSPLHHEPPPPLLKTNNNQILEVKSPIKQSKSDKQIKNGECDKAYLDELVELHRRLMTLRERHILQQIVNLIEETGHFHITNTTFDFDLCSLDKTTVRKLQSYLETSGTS
Method: To determine if the synthetic peptide could disrupt the AF4-AF9 interaction in vitro, and to determine if the peptide disrupted other binding events with AF9, the following assay was performed. In additional to AF4, the carboxy-terminus of AF9 binds at least two other proteins, the Polycomb protein MPc3 and mBCoR, the mouse homolog of the human BCL-6 corepressor protein (Srinivasan 2003 and Hemenway 2001, both cited above). Using a yeast three hybrid assay similar to that described in Example 1, it was previously shown that mBCoR and FMR2 (an AF4 homolog) can simultaneously bind AF9. […] The sequences of human AF4 and AF9 and murine MPc3 and BCoR can be found in the NCBI database under Accession Nos. P51825, P42568, Q9QXV1, and AAN85318, respectively, incorporated by reference herein.
Recombinant proteins consisting of glutathione-S-transferase (GST) fused to either (a) amino acids 749–775 of human AF4 SEQ ID NO: 107, (b) amino acids 202–362 of MPc3 SEQ ID NO: 108 or (c) amino acids 925–1759 of mBCoR SEQ ID NO: 109 were isolated from E. coli. These fusion proteins were immobilized on 50 μl glutathione agarose matrix. (i.e., glutathione Sepharose™ beads). Biotinylated AF9 was synthesized by coupled in vitro transcription and translation (Promega) of a Hind III restriction fragment of human AF9 cDNA. This fragment encodes the C-terminal 368 aa of AF9 SEQ ID NO: 114.
Binding of biotinylated AF9 was performed as previously described (Srinivasan, R. S., et al., 2003, cited above; Hemenway, C. S., et al., Oncogene 2001 20: 3798–3805). Briefly, 25 μl of crude AF4 protein extract was immobilized on glutathione coated 96 well plates (Sigma) followed by extensive washing with TBS containing 0.05% Tween (TBST). […]
After extensive washing with TBST, proteins were resolved by SDS-PAGE and transferred to nitrocellulose. […] Alkaline phosphatase activity was measured by determining the optical density of the samples at 405 nm with a plate spectrophotometer. […]

[2] = target: T1, AF4-AF9 interaction; assay: Enzyme-linked protein binding assay, GST-AF4(749-775) and biotinylated AF9; conditions: peptide 20 μg/ml; FIG. 2A
Method: Next, an enzyme-linked protein binding assay was developed as a potential high throughput tool to semi-quantitatively assess the ability of various compounds to disrupt the AF4-AF9 interaction in vitro (FIGS. 2A and 2B).
GST-AF4 (749–775) SEQ ID NO: 107 was bound to glutathione-coated 96-well plates and incubated with biotinylated AF9 in conjunction with 20 μg/ml of the following peptides: • (a) Pen-[…], a fusion protein of PENETRATIN™ transporter peptide to the amino terminus of […](SEQ ID NO: 110, PFmut), • (b) Pen-[…], a fusion protein of the transporter protein PENETRATIN™ to the amino terminus of […](SEQ ID NO: 2; or PFWT), • (c) […] or […](SEQ ID NO: 111); • (d) […] or […] (SEQ ID NO: 112); • (e) […] or […](SEQ ID NO: 113), or with • (f) DMSO, or • (g) GST-Cx, a control.
The plate was washed and the retention of AF9 was determined by a colorimetric assay using streptavidin-alkaline phosphatase and pNPP as a substrate. […] At this same peptide concentration, PFmut (a) in col. […] The 10 amino acid peptide (d) in col. 6 is the smallest molecule found to have activity in vitro.

[3] = tested on: B1 cells; assay: Cell cycle analysis (PI DNA staining, flow cytometry); type: cell-based; conditions: for proportion of cells in G1 / proportion of cells in G2 / proportion of cells in S: G1:S:G2 ratio
Method: Leukemia cells were subjected to cell cycle analyses using a Cellular DNA flow cytrometric analysis kit (Roche) according to manufacturers' protocols to determine if PFWT might also induce cell cycle arrest. B1 cells were treated with peptides as outlined above and fixed. For DNA staining, cells were harvested and washed and resuspended with PBS at a concentration of 10^6 cells/ml. 1 unit/ml of RNase and 50 μg/mI of PI was added to this suspension and incubated at 37° C. for 1 hr and analyzed by flow cytometry using Coulter benchtop flow cytometer.

[4] = Solubility; type: physicochemical
Method: PFWT and PFmut are soluble in phosphate buffered saline (PBS) at a concentration of 1 mg/ml and in dimethylsulfoxide (DMSO) at >50 mg/ml (data not shown). In the initial experiments, peptides were dissolved in PBS but were dissolved in DMSO for the majority of the subsequent experiments.

[5] = target: T1, AF4-AF9 interaction; assay: Enzyme-linked protein binding assay, GST-AF4(749-775) and biotinylated AF9
[6] = dimethylsulfoxide (DMSO), read-out: solubility in dimethylsulfoxide (DMSO)
[7] = phosphate buffered saline (PBS), read-out: solubility in phosphate buffered saline (PBS)

CC[C@H](C)[C@H](NC(=O)[C@H](CCCCN)NC(=O)[C@@H](NC(=O)[C@H](Cc1c[nH]c2ccccc12)NC(=O)[C@H](CC(C)C)NC(=O)[C@H](CCCCN)NC(=O)[C@H](CCCCN)NC(=O)[C@H](Cc1c[nH]c2ccccc12)NC(=O)[C@H](CCCCN)NC(=O)[C@H](CCSC)NC(=O)[C@H](CCCNC(=N)N)NC(=O)[C@H](CCCNC(=N)N)NC(=O)[C@H](CC(N)=O)NC(=O)[C@H](CCC(N)=O)NC(=O)[C@H](Cc1ccccc1)NC(=O)[C@H](Cc1c[nH]c2ccccc12)NC(=O)[C@H](CCCCN)NC(=O)[C@@H](NC(=O)[C@H](CCC(N)=O)NC(=O)[C@@H](N)CCCNC(=N)N)[C@@H](C)CC)C(C)C)C(=O)N[C@@H](CC(=O)O)C(=O)N[C@@H](CC(C)C)C(=O)N[C@@H](CC(=O)O)C(=O)N[C@@H](CC(C)C)C(=O)N[C@@H](CC(C)C)C(=O)N[C@@H](CO)C(=O)N[C@@H](CCCNC(=N)N)C(=O)N[C@H](C(=O)N1CCC[C@H]1C(=O)O)C(C)C [PFWT]
AF4-AF9 binding ([1]; peptide 10 μg/ml, western blot): completely blocks AF4-AF9 binding | AF9 binding to GST-AF4 (retention of AF9) [2]: almost completely block AF9 binding | sub-G1 population (of all events) [3]: 51% | proportion of cells in G1 [3]: 47 | proportion of cells in G2 [3]: 8 | proportion of cells in S [3]: 45 | solubility [4, 6]: > 50000 µg/mL | solubility [4, 7]: 1000 µg/mL (≈ 264 µM) | AF4-AF9 interaction ([5]; 10 μg/ml, FIG. 2B): abolished | concentration dependence of AF4-AF9 interaction ([5]; FIG. 2B): dose dependent reduction; also recorded: displaces AF9 from AF4 in a concentration-dependant fashion | lowest concentration showing activity ([5]; FIG. 2B): 10 ng/mL

CC[C@H](C)[C@H](NC(=O)[C@H](CCC(N)=O)NC(=O)[C@@H](N)CCCNC(=N)N)C(=O)N[C@@H](CCCCN)C(=O)N[C@@H](Cc1c[nH]c2ccccc12)C(=O)N[C@@H](Cc1ccccc1)C(=O)N[C@@H](CCC(N)=O)C(=O)N[C@@H](CC(N)=O)C(=O)N[C@@H](CCCNC(=N)N)C(=O)N[C@@H](CCCNC(=N)N)C(=O)N[C@@H](CCSC)C(=O)N[C@@H](CCCCN)C(=O)N[C@@H](Cc1c[nH]c2ccccc12)C(=O)N[C@@H](CCCCN)C(=O)N[C@@H](CCCCN)C(=O)N[C@@H](CC(C)C)C(=O)N[C@@H](Cc1c[nH]c2ccccc12)C(=O)N[C@@H](CCC(=O)O)C(=O)N[C@@H](CCCCN)C(=O)N[C@@H](CO)C(=O)N[C@@H](CC(=O)O)C(=O)N[C@@H](CC(C)C)C(=O)N[C@@H](CC(=O)O)C(=O)N[C@@H](CC(C)C)C(=O)N[C@@H](CC(C)C)C(=O)N[C@@H](CO)C(=O)N[C@@H](CCCNC(=N)N)C(=O)N[C@H](C(=O)N1CCC[C@H]1C(=O)O)C(C)C [PFmut]
AF4-AF9 binding ([1]; peptide 10 μg/ml, western blot): does not interfere with AF4-AF9 binding | AF4-AF9 binding ([1]; peptide 100 μg/ml): binding was still apparent | AF9 binding to GST-AF4 (retention of AF9) [2]: interferes with AF9 binding, but a significant amount of AF9 remains bound in the well | proportion of cells in G1 [3]: 52 | proportion of cells in G2 [3]: 8 | proportion of cells in S [3]: 40 | solubility [4, 6]: > 50000 µg/mL | solubility [4, 7]: 1000 µg/mL (≈ 264 µM) | concentration at which activity plateaus [5]: 40 µg/mL
